These results are taken from ChEMBL document CHEMBL4421728, “Bach1 Inhibitors in Combination with Nrf2 Activators and Pharmaceutical Compositions Thereof” (2017).

Assay [1] addresses T1, Nuclear factor erythroid 2-related factor 2 (Homo sapiens) (UniProt Q16236).
T1 sequence (whole entry): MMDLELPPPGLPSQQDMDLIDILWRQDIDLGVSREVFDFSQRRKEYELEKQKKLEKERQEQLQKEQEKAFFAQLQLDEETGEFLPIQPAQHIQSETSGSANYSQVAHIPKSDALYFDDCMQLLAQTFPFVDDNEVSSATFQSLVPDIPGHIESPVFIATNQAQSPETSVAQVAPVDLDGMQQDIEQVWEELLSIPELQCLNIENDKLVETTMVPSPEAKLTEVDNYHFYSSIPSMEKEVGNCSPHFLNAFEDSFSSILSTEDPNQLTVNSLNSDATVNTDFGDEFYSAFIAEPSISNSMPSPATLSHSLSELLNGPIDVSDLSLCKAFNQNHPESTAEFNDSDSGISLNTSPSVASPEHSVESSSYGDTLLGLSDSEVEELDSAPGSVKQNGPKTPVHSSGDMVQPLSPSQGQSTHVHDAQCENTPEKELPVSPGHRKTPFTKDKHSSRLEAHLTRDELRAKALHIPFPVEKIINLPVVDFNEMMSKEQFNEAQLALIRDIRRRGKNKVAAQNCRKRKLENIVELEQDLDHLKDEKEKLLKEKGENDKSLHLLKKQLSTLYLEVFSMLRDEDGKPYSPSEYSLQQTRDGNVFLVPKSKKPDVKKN
Kind of assay: Activation of Nrf2 in normal human lung fibroblasts assessed as induction of HMOX protein expression at 0.0024 uM incubated for 16 to 18 hrs by immunostaining relative to control.

Assay [2] addresses T1, Nuclear factor erythroid 2-related factor 2 (Homo sapiens). Kind of assay: Activation of Nrf2 in normal human lung fibroblasts assessed as induction of HMOX protein expression at 0.0048 uM incubated for 16 to 18 hrs by immunostaining relative to control.
The target is the same in assay [3]. The assay is described as follows: Activation of Nrf2 in normal human lung fibroblasts assessed as induction of HMOX protein expression at 0.0097 uM incubated for 16 to 18 hrs by immunostaining relative to control.
For assay [4] the target is unchanged. Kind of assay: Activation of Nrf2 in normal human lung fibroblasts assessed as induction of HMOX protein expression at 0.019 uM incubated for 16 to 18 hrs by immunostaining relative to control.
For assay [5] the target is unchanged. Kind of assay: Activation of Nrf2 in normal human lung fibroblasts assessed as induction of HMOX protein expression at 0.039 uM incubated for 16 to 18 hrs by immunostaining relative to control.
The target is the same in assay [6]. Kind of assay: Activation of Nrf2 in normal human lung fibroblasts assessed as induction of HMOX protein expression at 0.078 uM incubated for 16 to 18 hrs by immunostaining relative to control.
Assay [7] shares this target. Kind of assay: Activation of Nrf2 in normal human lung fibroblasts assessed as induction of HMOX protein expression at 0.156 uM incubated for 16 to 18 hrs by immunostaining relative to control.
For assay [8] the target is unchanged. Kind of assay: Activation of Nrf2 in normal human lung fibroblasts assessed as induction of HMOX protein expression at 0.312 uM incubated for 16 to 18 hrs by immunostaining relative to control.
Assay [9] has the same target. The assay is described as follows: Activation of Nrf2 in normal human lung fibroblasts assessed as induction of HMOX protein expression by measuring HMOX positive cells level at 0.03 uM incubated for 16 to 18 hrs by immunostaining relative to control DMSO.
Assay [10] has the same target. Kind of assay: Activation of Nrf2 in normal human lung fibroblasts assessed as induction of HMOX protein expression by measuring HMOX positive cells level at 0.1 uM incubated for 16 to 18 hrs by immunostaining relative to control DMSO.
The target is the same in assay [11]. Kind of assay: Activation of Nrf2 in normal human lung fibroblasts assessed as induction of HMOX protein expression by measuring HMOX positive cells level at 0.3 uM incubated for 16 to 18 hrs by immunostaining relative to control DMSO.
The target is the same in assay [12]. Kind of assay: Activation of Nrf2 in normal human lung fibroblasts assessed as induction of HMOX protein expression by measuring HMOX positive cells level at 1 uM incubated for 16 to 18 hrs by immunostaining relative to control DMSO.
For assay [13] the target is unchanged. The assay is described as follows: Activation of Nrf2 in normal human lung fibroblasts assessed as induction of HMOX protein expression by measuring HMOX positive cells level at 3 uM incubated for 16 to 18 hrs by immunostaining relative to control DMSO.
The target is the same in assay [14]. Kind of assay: Activation of Nrf2 in normal human lung fibroblasts assessed as induction of HMOX protein expression by measuring HMOX positive cells level at 10 uM incubated for 16 to 18 hrs by immunostaining relative to control DMSO.
Assay [15] shares this target. Kind of assay: Activation of Nrf2 in normal human lung fibroblasts assessed as induction of HMOX protein expression at 0.03 uM incubated for 16 to 18 hrs by immunostaining relative to control.
Assay [16] shares this target. The assay is described as follows: Activation of Nrf2 in normal human lung fibroblasts assessed as induction of HMOX protein expression at 0.1 uM incubated for 16 to 18 hrs by immunostaining relative to control.
For assay [17] the target is unchanged. Kind of assay: Activation of Nrf2 in normal human lung fibroblasts assessed as induction of HMOX protein expression at 0.3 uM incubated for 16 to 18 hrs by immunostaining relative to control.
Assay [18] has the same target. Kind of assay: Activation of Nrf2 in normal human lung fibroblasts assessed as induction of HMOX protein expression at 1 uM incubated for 16 to 18 hrs by immunostaining relative to control.
For assay [19] the target is unchanged. The assay is described as follows: Activation of Nrf2 in normal human lung fibroblasts assessed as induction of HMOX protein expression at 3 uM incubated for 16 to 18 hrs by immunostaining relative to control.
For assay [20] the target is unchanged. Kind of assay: Activation of Nrf2 in normal human lung fibroblasts assessed as induction of HMOX protein expression at 10 uM incubated for 16 to 18 hrs by immunostaining relative to control.
The target is the same in assay [21]. Kind of assay: Activation of Nrf2 in normal human lung fibroblasts assessed as induction of HMOX protein expression by measuring HMOX positive cells level at 30 uM incubated for 16 to 18 hrs by immunostaining relative to control DMSO.
Assay [22] shares this target. Kind of assay: Activation of Nrf2 in normal human lung fibroblasts assessed as induction of HMOX protein expression at 30 uM incubated for 16 to 18 hrs by immunostaining relative to control.

With `COC(=O)[C@]12CCC(C)(C)C[C@H]1[C@H]1C(=O)C=C3[C@@]4(C)C=C(C#N)C(=O)C(C)(C)[C@@H]4CC[C@@]3(C)[C@]1(C)CC2`, the fold change (FC) came out at 1.31 in assay [1]; 1.59 in assay [2]; 2.53 in assay [3]; 5 in [4]; 8.48 in [5]; 12.2 in [6]. The fold change (FC) in assay [7] is 19; in [8] it was 16.4.
Take `COC(=O)/C=C/C(=O)OC`: the Activity in [9] stood at 1.71%; in assay [10] it was 1.21%; in assay [11] it was 2.47%; in assay [12], 4.38%; in assay [13], 41.6%; in assay [14], 74.3%. Moreover, the Activity in assay [21] came out at 84.6%. Moreover, the fold change (FC) worked out at 1.04 in assay [15]; 1.06 in assay [16]; 1.14 in [17]; 1.39 in [18]; 2.76 in assay [19]; 4.45 in assay [20]. For the same compound, the fold change (FC) in [22] is 6.19.
